Assay results as given in article PMC11343403, “A novel TREX1 inhibitor, VB-85680, upregulates cellular interferon responses” (PLOS ONE, 2024).

Experiments:
[1] = target: T1, TREX1 (Three-prime Repair EXonuclease 1), mouse (Mus musculus, UniProt Q91XB0); experiment: fluorescence exonuclease assay (FAM-12mer-BHQ1) in HEK293T overexpression lysate, with D18N and empty-vector controls; assay type: biochemical
T1 construct: full-length mouse TREX1 (wild-type), overexpressed in HEK293T
T1 sequence (Q91XB0 1-314): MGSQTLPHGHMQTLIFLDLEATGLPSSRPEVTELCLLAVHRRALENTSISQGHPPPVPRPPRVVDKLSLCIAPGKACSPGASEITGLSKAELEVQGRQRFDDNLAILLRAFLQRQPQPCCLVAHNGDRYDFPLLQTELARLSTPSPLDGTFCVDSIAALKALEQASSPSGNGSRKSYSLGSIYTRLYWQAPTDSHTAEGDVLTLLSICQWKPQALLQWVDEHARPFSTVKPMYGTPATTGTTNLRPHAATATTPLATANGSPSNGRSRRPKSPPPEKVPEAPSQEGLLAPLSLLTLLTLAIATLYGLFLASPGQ

[2] = target: T2, TREX1 (Three-prime Repair EXonuclease 1), human (Homo sapiens, UniProt Q9NSU2); experiment: BioVision […]' to […]' exonuclease activity assay in THP1-Dual lysate, with TREX1 knockout lysate control; assay type: biochemical
T2 construct: endogenous human TREX1 in THP1-Dual cell lysate
T2 sequence (Q9NSU2 1-314): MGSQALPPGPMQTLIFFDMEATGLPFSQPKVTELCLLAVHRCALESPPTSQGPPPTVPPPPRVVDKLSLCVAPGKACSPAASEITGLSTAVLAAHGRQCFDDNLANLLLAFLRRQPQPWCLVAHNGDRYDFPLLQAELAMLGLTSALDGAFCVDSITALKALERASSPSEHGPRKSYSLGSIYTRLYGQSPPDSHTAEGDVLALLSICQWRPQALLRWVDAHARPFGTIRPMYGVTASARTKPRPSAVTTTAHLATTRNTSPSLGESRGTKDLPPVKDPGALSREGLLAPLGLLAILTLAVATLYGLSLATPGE

In the case of VB-85680, the IC50 [1] is reported as 3.1 nM and the IC50 [2] is reported as 48.8 nM.
